Test results published in patent US20240252488A1 (KOREA RESEARCH INSTITUTE OF CHEMICAL TECHNOLOGY, priority 2020, published 2024).

Tests used:
FADD−/− Jurkat cells = experiment: Necroptosis inhibition assay, TNF-α-induced necroptosis (CellTiter-Glo 2.0); type: cell-based, human; details: TNF-α 15 ng/mL; for Necroptosis inhibition assay (Rescue %) 1 μM: compound 1 μM; for Necroptosis inhibition assay (Rescue %) 10 μM: compound 10 μM
In short: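 Tested at three fixed concentrations (0.1, 1, 10 μM final) with a 30-minute room-temperature preincubation ahead of 15 ng/mL TNF-α challenge lasting 20 to 24 hours. Inhibition rate and cytotoxicity derive from ATP luminescence.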

MLKL [1] = target: T1, MLKL (Homo sapiens, UniProt Q8NB16); experiment: MLKL degradation assay in HepG2 cell line (western blot); type: cell-based; design: endogenous in cells; host or cells: HepG2 or HaCaT; details: cell line not given; for Degradation assay (Degradation %) 1 μM: compound 1 μM; for Degradation assay (Degradation %) 10 μM: compound 10 μM
T1 sequence (Q8NB16 1-471): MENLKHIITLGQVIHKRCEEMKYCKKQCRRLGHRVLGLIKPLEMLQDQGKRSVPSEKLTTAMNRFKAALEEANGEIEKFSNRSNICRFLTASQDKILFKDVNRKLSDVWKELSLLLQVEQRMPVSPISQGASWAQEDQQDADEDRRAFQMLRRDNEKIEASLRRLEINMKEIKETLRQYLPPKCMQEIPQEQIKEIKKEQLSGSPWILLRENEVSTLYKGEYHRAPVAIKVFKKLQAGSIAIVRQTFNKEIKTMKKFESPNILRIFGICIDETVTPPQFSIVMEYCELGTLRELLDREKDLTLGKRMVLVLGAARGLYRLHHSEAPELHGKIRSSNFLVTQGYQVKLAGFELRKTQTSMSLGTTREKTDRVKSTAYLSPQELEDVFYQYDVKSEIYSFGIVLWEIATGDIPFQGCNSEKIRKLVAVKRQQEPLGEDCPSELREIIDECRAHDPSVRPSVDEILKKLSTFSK
In short: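 Degradation is judged from MLKL band intensity on immunoblots of HepG2 lysates taken after 20-24 hours of compound at final 1 or 10 μM.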

MLKL [2] = target: T1, MLKL; experiment: Measurement of binding affinity with MLKL receptor (competitive binding assay, Kd); design: made in house; host or cells: HEK 293 cell line (T7 phage in E. coli BL21-derived host is also described)
In short: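 Kd from an immobilized-ligand competition format: the DNA-tagged kinase from HEK 293 expression is eluted and quantified by qPCR. Compounds added from 111× DMSO stocks, final DMSO 0.9%.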

Structure (SMILES)	Degradation assay (Degradation %) 1 μM (MLKL [1])	Degradation assay (Degradation %) 10 μM (MLKL [1])	Kd (MLKL [2])	Necroptosis inhibition assay (Rescue %) 1 μM (FADD−/− Jurkat cells; FADD−/− Jurkat cells)	Necroptosis inhibition assay (Rescue %) 10 μM (FADD−/− Jurkat cells; FADD−/− Jurkat cells)	Necroptosis inhibition assay (Rescue %) 1 μM (FADD−/− Jurkat cells)	Necroptosis inhibition assay (Rescue %) 10 μM (FADD−/− Jurkat cells)
Nc1ncc(-c2cnn(C3CCN(CCCN4CCN(C(=O)c5ccc6c(c5)CN(C5CCC(=O)NC5=O)C6=O)CC4)CC3)c2)nc1C(=O)O[C@@H](C(=O)Nc1ccc(F)cc1)c1ccccc1 (stereo partly drawn) [TDH-530, (R)-2-((4-fluorophenyl)amino)-2-oxo-1-phenylethyl 3-amino-6-(1-(1-(3-(4-(2-(2,6-dioxopiperidin-3-yl)-1-oxoisoindoline-5-carbonyl)piperazin-1-yl)propyl)piperidin-4-yl)-1H-pyrazol-4-yl)pyrazine-2-carboxylate]	54.30%	61.10%	0.21 nM	29.18%	30.78%	–	–
Nc1ncc(-c2cnn(C3CCN(C(=O)C4CCN(C(=O)CC5CCN(c6cccc7c6C(=O)N(C6CCC(=O)NC6=O)C7=O)CC5)CC4)CC3)c2)nc1C(=O)O[C@@H](C(=O)Nc1ccc(F)cc1)c1ccccc1 (stereo partly drawn) [TDH-374, (R)-2-((4-fluorophenyl)amino)-2-oxo-1-phenylethyl 3-amino-6-(1-(1-(1-(2-(1-(2-(2,6-dioxopiperidin-3-yl)-1,3-dioxoisoindolin-4-yl)piperidin-4-yl)acetyl)piperidine-4-carbonyl)piperidin-4-yl)-1H-pyrazol-4-yl)pyrazine-2-carboxylate]	93.73%	91.38%	2.7 nM	–	–	39.14%	32.53%
Nc1ncc(-c2cnn(C3CCN(CCCN4CCN(C(=O)CNc5ccc6c(c5)C(=O)N(C5CCC(=O)NC5=O)C6=O)CC4)CC3)c2)nc1C(=O)OC(C(=O)Nc1ccc(F)cc1)c1ccccc1 (centres unmarked) [TDH-242, 2-((4-fluorophenyl)amino)-2-oxo-1-phenylethyl 3-amino-6-(1-(1-(3-(4-((2-(2,6-dioxopiperidin-3-yl)-1,3-dioxoisoindolin-5-yl)glycyl)piperazin-1-yl)propyl)piperidin-4-yl)-1H-pyrazol-4-yl)pyrazine-2-carboxylate]	75.75%	66.84%	2.5 nM	–	–	71.4%	44.8%
Nc1ncc(-c2cnn([C@H]3CCN(CCOCCOCCNC(=O)COc4ccc5c(c4)C(=O)N(C4CCC(=O)NC4=O)C5=O)C3)c2)nc1C(=O)OC(C(=O)Nc1ccc(F)cc1)c1ccccc1 (stereo partly drawn) [TDH-266, 2-((4-fluorophenyl)amino)-2-oxo-1-phenylethyl 3-amino-6-(1-((3S)-1-(2-(2-(2-(2-((2-(2,6-dioxopiperidin-3-yl)-1,3-dioxoisoindolin-5-yl)oxy)acetamido)ethoxy)ethoxy)ethyl)pyrrolidin-3-yl)-1H-pyrazol-4-yl)pyrazine-2-carboxylate]	18.14%	40.08%	6 nM	–	–	35.24%	68.2%

Second part, led by results:

Degradation assay (Degradation %) 1 μM (MLKL [1])	Degradation assay (Degradation %) 10 μM (MLKL [1])	Kd (MLKL [2])	Structure (SMILES)	Necroptosis inhibition assay (Rescue %) 1 μM (FADD−/− Jurkat cells; FADD−/− Jurkat cells)	Necroptosis inhibition assay (Rescue %) 10 μM (FADD−/− Jurkat cells; FADD−/− Jurkat cells)	Necroptosis inhibition assay (Rescue %) 1 μM (FADD−/− Jurkat cells)	Necroptosis inhibition assay (Rescue %) 10 μM (FADD−/− Jurkat cells)
15.59%	16.2%	160 nM	Nc1ncc(-c2ccc(N3CCN(CC4CCN(C(=O)CNc5ccc6c(c5)C(=O)N(C5CCC(=O)NC5=O)C6=O)CC4)CC3)nc2)nc1C(=O)OC(C(=O)Nc1ccc(F)cc1)c1ccccc1 (centres unmarked) [TDH-233, 2-((4-fluorophenyl)amino)-2-oxo-1-phenylethyl 3-amino-6-(6-(4-((1-((2-(2,6-dioxopiperidin-3-yl)-1,3-dioxoisoindolin-5-yl)glycyl)piperidin-4-yl)methyl)piperazin-1-yl)pyridin-3-yl)pyrazine-2-carboxylate]	–	–	23.37%	4.71%
56.44%	44.97%	5.3 nM	Nc1ncc(-c2cnn(C3CCN(CCC4CCN(C(=O)C5CCN(c6ccc7nnn(C8CCC(=O)NC8=O)c(=O)c7c6)CC5)CC4)CC3)c2)nc1C(=O)OC(C(=O)Nc1ccc(F)cc1)c1ccccc1 (centres unmarked) [TDH-290, 2-((4-fluorophenyl)amino)-2-oxo-1-phenylethyl 3-amino-6-(1-(1-(2-(1-(1-(3-(2,6-dioxopiperidin-3-yl)-4-oxo-3,4-dihydrobenzo[d][1,2,3]triazin-6-yl)piperidine-4-carbonyl)piperidin-4-yl)ethyl)piperidin-4-yl)-1H-pyrazol-4-yl)pyrazine-2-carboxylate]	–	–	90.57%	84.93%
59.87%	40.64%	6.9 nM	Cc1ncsc1-c1ccc(CNC(=O)[C@H]2C[C@H](O)CN2C(=O)[C@@H](NC(=O)CN2CCC(CCN3CCC(n4cc(-c5cnc(N)c(C(=O)OC(C(=O)Nc6ccc(F)cc6)c6ccccc6)n5)cn4)CC3)CC2)C(C)(C)C)cc1 (stereo partly drawn) [TDH-312, 2-((4-fluorophenyl)amino)-2-oxo-1-phenylethyl 3-amino-6-(1-(1-(2-(1-(2-(((S)-1-((2R,4S)-4-hydroxy-2-((4-(4-methylthiazol-5-yl)benzyl)carbamoyl)pyrrolidin-1-yl)-3,3-dimethyl-1-oxobutan-2-yl)amino)-2-oxoethyl)piperidin-4-yl)ethyl)piperidin-4-yl)-1H-pyrazol-4-yl)pyrazine-2-carboxylate]	–	–	75.61%	–
73.33%	94%	1.1 nM	Nc1ncc(-c2cnn(C3CCN(CCCN4CCN(C(=O)CC5CCN(c6ccc7c(c6)C(=O)N(C6CCC(=O)NC6=O)C7=O)CC5)CC4)CC3)c2)nc1C(=O)O[C@@H](C(=O)Nc1ccc(F)cc1)c1ccccc1 (stereo partly drawn) [TDH-369, (R)-2-((4-fluorophenyl)amino)-2-oxo-1-phenylethyl 3-amino-6-(1-(1-(3-(4-(2-(1-(2-(2,6-dioxopiperidin-3-yl)-1,3-dioxoisoindolin-5-yl)piperidin-4-yl)acetyl)piperazin-1-yl)propyl)piperidin-4-yl)-1H-pyrazol-4-yl)pyrazine-2-carboxylate]	–	–	48.04%	22.49%
79.96%	81.68%	2.3 nM	Nc1ncc(-c2cnn(C3CCN(CCC4CCN(C(=O)CNc5ccc6nnn(C7CCC(=O)NC7=O)c(=O)c6c5)CC4)CC3)c2)nc1C(=O)OC(C(=O)Nc1ccc(F)cc1)c1ccccc1 (centres unmarked) [TDH-292, 2-((4-fluorophenyl)amino)-2-oxo-1-phenylethyl 3-amino-6-(1-(1-(2-(1-((3-(2,6-dioxopiperidin-3-yl)-4-oxo-3,4-dihydrobenzo[d][1,2,3]triazin-6-yl)glycyl)piperidin-4-yl)ethyl)piperidin-4-yl)-1H-pyrazol-4-yl)pyrazine-2-carboxylate]	–	–	78.15%	73.02%
